Experimental data as given in US12696901B2, “Pesticidally active heterocyclic derivatives with sulfur containing substituents” (SYNGENTA CROP PROTECTION AG, priority 2020, dated 2026).

Tests used:
Assay type in all cases: in vivo
[1] = tested on: Myzus persicae (Green Peach Aphid); experiment: Activity against Myzus persicae (green peach aphid), feeding/contact activity; conditions: 144 h, application rate 200 ppm, mixed ages, 6 days after infestation
Description: Example B6: Activity Against Myzus persicae (Green Peach Aphid) Feeding/Contact Activity
Sunflower leaf discs were placed onto agar in a 24-well microtiter plate and sprayed with aqueous test solutions prepared from 10,000 ppm DMSO stock solutions. After drying, the leaf discs were infested with an aphid population of mixed ages. The samples were assessed for mortality 6 days after infestation.

[2] = tested on: Diabrotica balteata (Corn Root Worm); experiment: Activity against Diabrotica balteata (corn root worm), corn seedlings on filter paper in cups; conditions: 120 h, application rate 3 ppm, L2 larva, 5 days after treatment, read-out: effect in at least one of the two categories (mortality or growth inhibition)
Description: Example B12: Activity Against Diabrotica Balteata (Corn Root Worm)
Three corn seedlings were placed on wetted filter paper in plastic cups, and 3 ml of diluted test solutions were pipetted onto them. The cups were infested with 10 L2 larva and checked for mortality and growth regulation 5 days after treatment.

[3] = tested on: Diabrotica balteata (Corn Root Worm); experiment: Activity against Diabrotica balteata (corn root worm), sprayed maize sprouts on agar; conditions: 96 h, application rate 200 ppm, L2 larvae, 4 days after infestation, read-out: effect in at least one of the two categories (mortality or growth inhibition)
Description: Example B2: Activity Against Diabrotica balteata (Corn Root Worm)
Maize sprouts placed onto an agar layer in 24-well microtiter plates were treated with aqueous test solutions prepared from 10,000 ppm DMSO stock solutions by spraying. After drying, the plates were infested with L2 larvae (6 to 10 per well). The samples were assessed for mortality and growth inhibition in comparison to untreated samples 4 days after infestation.

[4] = tested on: Carpocapsa (Cydia) Pomonella (Codling Moth); experiment: Activity against Carpocapsa (Cydia) pomonella (codling moth), sprayed diet cubes; conditions: 336 h, application rate 12.5 ppm, L1 larvae, 14 days after infestation, read-out: effect in at least one of the two categories (mortality or growth inhibition)
Description: Example B11: Activity Against Carpocapsa (Cydia) Pomonella (Codling Moth)
Diet cubes coated with paraffin were sprayed with diluted test solutions in an application chamber. After drying off the treated cubes (10 replicates) were infested with 1 L1 larvae. Samples were incubated at 26-27° C. and checked 14 days after infestation for mortality and growth inhibition. The following compounds gave an effect of at least 80% in at least one of the two categories (mortality or growth inhibition) at an application rate of 12.5 ppm: P1, P2, P3, P4, P5, P6, P10, P11, P12, P14, P15, P16, P17, P19, P20, P21, P22, P24, P27, P29, P30, P33, P34, P35.

[5] = tested on: Euschistus heros (Neotropical Brown Stink Bug); experiment: Activity against Euschistus heros (neotropical brown stink bug), sprayed soybean leaves; conditions: 120 h, application rate 200 ppm, N2 nymphs, 5 days after infestation, read-out: effect in at least one of the two categories (mortality or growth inhibition)
Description: Example B3: Activity Against Euschistus heros (Neotropical Brown Stink Bug)
Soybean leaves on agar in 24-well microtiter plates were sprayed with aqueous test solutions prepared from 10,000 ppm DMSO stock solutions. After drying the leaves were infested with N2 nymphs. The samples were assessed for mortality and growth inhibition in comparison to untreated samples 5 days after infestation.

[6] = tested on: Bemisia tabaci (Cotton White Fly); experiment: Activity against Bemisia tabaci (cotton white fly), sprayed cotton leaf discs; conditions: foliar, 144 h, application rate 200 ppm, adult white flies, 6 days after incubation
Description: Example B1: Activity Against Bemisia tabaci (Cotton White Fly)
Cotton leaf discs were placed on agar in 24-well microtiter plates and sprayed with aqueous test solutions prepared from 10,000 ppm DMSO stock solutions. After drying the leaf discs were infested with adult white flies. The samples were checked for mortality 6 days after incubation.

[7] = tested on: Spodoptera littoralis (Egyptian Cotton Leaf Worm); experiment: Activity against Spodoptera littoralis (Egyptian cotton leaf worm), sprayed cotton leaf discs; conditions: foliar, 72 h, application rate 200 ppm, L1 larvae, 3 days after infestation
Description: Example B7: Activity Against Spodoptera littoralis (Egyptian Cotton Leaf Worm)
Cotton leaf discs were placed onto agar in 24-well microtiter plates and sprayed with aqueous test solutions prepared from 10,000 ppm DMSO stock solutions. After drying the leaf discs were infested with five L1 larvae. The samples were assessed for mortality, anti-feeding effect, and growth inhibition in comparison to untreated samples 3 days after infestation. Control of Spodoptera littoralis by a test sample is given when at least one of the categories mortality, anti-feedant effect, and growth inhibition is higher than the untreated sample.

[8] = tested on: Plutella xylostella (Diamond Back Moth); experiment: Activity against Plutella xylostella (diamond back moth), treated artificial diet; conditions: 192 h, application rate 200 ppm, eggs, 8 days after infestation, read-out: effect in at least one of the two categories (mortality or growth inhibition)
Description: Example B5: Activity Against Plutella xylostella (Diamond Back Moth)
24-well microtiter plates with artificial diet were treated with aqueous test solutions prepared from 10,000 ppm DMSO stock solutions by pipetting. After drying, Plutella eggs were pipetted through a plastic stencil onto a gel blotting paper and the plate was closed with it. The samples were assessed for mortality and growth inhibition in comparison to untreated samples 8 days after infestation.

[9] = tested on: Chilo suppressalis (Striped Rice Stemborer); experiment: Activity against Chilo suppressalis (striped rice stemborer), treated artificial diet; conditions: 144 h, application rate 200 ppm, L2 larvae, 6 days after infestation
Description: Example B10: Activity Against Chilo suppressalis (Striped Rice Stemborer)
24-well microtiter plates with artificial diet were treated with aqueous test solutions prepared from 10,000 ppm DMSO stock solutions by pipetting. After drying, the plates were infested with L2 larvae (6-8 per well). The samples were assessed for mortality, anti-feeding effect, and growth inhibition in comparison to untreated samples 6 days after infestation. Control of Chilo suppressalis by a test sample is given when at least one of the categories mortality, anti-feedant effect, and growth inhibition is higher than the untreated sample.

CCS(=O)(=O)c1c(N2Cc3cnc(C(F)(F)F)cc3C2=O)sc2cc(C(F)(F)F)ccc12 [Compound P1, 2-[3-ethylsulfonyl-6-(trifluoromethyl)benzothiophen-2-yl]-6-(trifluoromethyl)-3H-pyrrolo[3,4-c]pyridin-1-one]
≥ 80%: mortality at 200 ppm [1] | percent effect (mortality or growth inhibition) at 3 ppm [2] | percent effect (mortality or growth inhibition) at 200 ppm [3] | percent effect (mortality or growth inhibition) at 12.5 ppm [4] | percent effect (mortality or growth inhibition) at 200 ppm [5] | mortality at 200 ppm [6] | percent control (mortality, anti-feedant effect or growth inhibition) at 200 ppm [7] | percent effect (mortality or growth inhibition) at 200 ppm [8]

CCS(=O)(=O)c1c(N2Cc3ccc(OC(F)(F)F)cc3C2=O)nc2cc(C(F)(F)F)ccn12 [Compound P7, 2-[3-ethylsulfonyl-7-(trifluoromethyl)imidazo[1,2-a]pyridin-2-yl]-6-(trifluoromethoxy) isoindolin-1-one]
≥ 80%: mortality at 200 ppm [1] | percent effect (mortality or growth inhibition) at 3 ppm [2] | percent effect (mortality or growth inhibition) at 200 ppm [3] | mortality at 200 ppm [6] | percent control (mortality, anti-feedant effect or growth inhibition) at 200 ppm [7] | percent effect (mortality or growth inhibition) at 200 ppm [8]

CCS(=O)(=O)c1c(N2Cc3ccc(OC(F)(F)F)cc3C2=O)nc2ccc(C(F)(F)F)cn12 [Compound P6, 2-[3-ethylsulfonyl-6-(trifluoromethyl)imidazo[1,2-a]pyridin-2-yl]-6-(trifluoromethoxy) isoindolin-1-one]
≥ 80%: mortality at 200 ppm [1] | percent effect (mortality or growth inhibition) at 3 ppm [2] | percent effect (mortality or growth inhibition) at 200 ppm [3] | percent effect (mortality or growth inhibition) at 12.5 ppm [4] | percent effect (mortality or growth inhibition) at 200 ppm [5] | mortality at 200 ppm [6] | percent control (mortality, anti-feedant effect or growth inhibition) at 200 ppm [7] | percent effect (mortality or growth inhibition) at 200 ppm [8]

CCS(=O)(=O)c1c(N2Cc3ncc(C(F)(F)F)cc3C2=O)nc2cc(OCC(F)(F)F)ccn12 [Compound P12, 6-[3-ethylsulfonyl-7-(2,2,2-trifluoroethoxy)imidazo[1,2-a]pyridin-2-yl]-3-(trifluoromethyl)-7H-pyrrolo[3,4-b]pyridin-5-one]
≥ 80%: mortality at 200 ppm [1] | percent control (mortality, anti-feedant effect or growth inhibition) at 200 ppm [9] | percent effect (mortality or growth inhibition) at 3 ppm [2] | percent effect (mortality or growth inhibition) at 200 ppm [3] | percent effect (mortality or growth inhibition) at 12.5 ppm [4] | percent effect (mortality or growth inhibition) at 200 ppm [5] | percent control (mortality, anti-feedant effect or growth inhibition) at 200 ppm [7] | percent effect (mortality or growth inhibition) at 200 ppm [8]

CCS(=O)(=O)c1c(N2Cc3ncc(C(F)(F)F)cc3C2=O)nc2ccc(OC(C)(C)C#N)cn12 [Compound P20, 2-[3-ethylsulfonyl-2-[5-oxo-3-(trifluoromethyl)-7H-pyrrolo[3,4-b]pyridin-6-yl]imidazo [1,2-a]pyridin-6-yl] oxy-2-methyl-propanenitrile]
≥ 80%: mortality at 200 ppm [1] | percent control (mortality, anti-feedant effect or growth inhibition) at 200 ppm [9] | percent effect (mortality or growth inhibition) at 3 ppm [2] | percent effect (mortality or growth inhibition) at 200 ppm [3] | percent effect (mortality or growth inhibition) at 12.5 ppm [4] | mortality at 200 ppm [6] | percent control (mortality, anti-feedant effect or growth inhibition) at 200 ppm [7] | percent effect (mortality or growth inhibition) at 200 ppm [8]

CCS(=O)(=O)c1c(N2Cc3ccc(OC(F)(F)F)cc3C2=O)nc2ccc(OC(C)(C)C#N)cn12 [Compound P26, 2-[3-ethylsulfonyl-2-[1-oxo-6-(trifluoromethoxy)isoindolin-2-yl]imidazo[1,2-a]pyridin-6-yl]oxy-2-methyl-propanenitrile]
≥ 80%: mortality at 200 ppm [1] | percent control (mortality, anti-feedant effect or growth inhibition) at 200 ppm [9] | percent effect (mortality or growth inhibition) at 3 ppm [2] | percent effect (mortality or growth inhibition) at 200 ppm [3] | mortality at 200 ppm [6] | percent control (mortality, anti-feedant effect or growth inhibition) at 200 ppm [7] | percent effect (mortality or growth inhibition) at 200 ppm [8]

CCS(=O)(=O)c1c(N2Cc3ncc(C(F)(F)F)cc3C2=O)nc2ccc(C(F)(F)F)cn12 [Compound P4, 6-[3-ethylsulfonyl-6-(trifluoromethyl)imidazo[1,2-a]pyridin-2-yl]-3-(trifluoromethyl)-7H-pyrrolo[3,4-b] pyridin-5-one]
≥ 80%: mortality at 200 ppm [1] | percent effect (mortality or growth inhibition) at 3 ppm [2] | percent effect (mortality or growth inhibition) at 200 ppm [3] | percent effect (mortality or growth inhibition) at 12.5 ppm [4] | percent effect (mortality or growth inhibition) at 200 ppm [5] | mortality at 200 ppm [6] | percent control (mortality, anti-feedant effect or growth inhibition) at 200 ppm [7] | percent effect (mortality or growth inhibition) at 200 ppm [8]

CCS(=O)(=O)c1c(N2Cc3ncc(C(F)(F)F)cc3C2=O)nc2ccc(Br)cn12 [Compound P21, 6-(6-bromo-3-ethylsulfonyl-imidazo[1,2-a]pyridin-2-yl)-3-(trifluoromethyl)-7H-pyrrolo[3,4-b]pyridin-5-one]
≥ 80%: mortality at 200 ppm [1] | percent control (mortality, anti-feedant effect or growth inhibition) at 200 ppm [9] | percent effect (mortality or growth inhibition) at 3 ppm [2] | percent effect (mortality or growth inhibition) at 200 ppm [3] | percent effect (mortality or growth inhibition) at 12.5 ppm [4] | percent effect (mortality or growth inhibition) at 200 ppm [5] | percent control (mortality, anti-feedant effect or growth inhibition) at 200 ppm [7] | percent effect (mortality or growth inhibition) at 200 ppm [8]

CCS(=O)(=O)c1c(N2Cc3ncc(C(F)(F)F)cc3C2=O)nc2ccc(OCC(F)F)cn12 [Compound P19, 6-[6-(2,2-difluoroethoxy)-3-ethylsulfonyl-imidazo[1,2-a]pyridin-2-yl]-3-(trifluoromethyl)-7H-pyrrolo[3,4-b]pyridin-5-one]
≥ 80%: mortality at 200 ppm [1] | percent control (mortality, anti-feedant effect or growth inhibition) at 200 ppm [9] | percent effect (mortality or growth inhibition) at 3 ppm [2] | percent effect (mortality or growth inhibition) at 200 ppm [3] | percent effect (mortality or growth inhibition) at 12.5 ppm [4] | percent effect (mortality or growth inhibition) at 200 ppm [5] | percent control (mortality, anti-feedant effect or growth inhibition) at 200 ppm [7] | percent effect (mortality or growth inhibition) at 200 ppm [8]
